These results are taken from ChEMBL document CHEMBL2040846, “A new 9,11-secosterol from the soft coral Sinularia granosa” (Bioorg Med Chem Lett, 2012).

In brackets after ≈: the same amount, converted by molar mass. Some results are limits rather than exact numbers.

One may read the inhibition as the share of the control response that was lost under treatment.

The subject of one data set is HeLa. Nature of the data set: Antiproliferative activity against human HeLa cells after 6 days by MTT assay. The class given is functional. The settings on record: 144 h, read-out: ED50 (the source's name). (Tetrazolium assays rely on reduction of a dye to a coloured formazan, in cell work by metabolically active cells.)
Another data set relates to HEp-2. Nature of the data set: Antiproliferative activity against human Hep2 cells after 6 days by MTT assay. The class given is functional. The conditions noted are these: HEp-2, 144 h, read-out: ED50 (the source's name).
A further data set concerns Daoy. Briefly: Antiproliferative activity against human DaOY cells after 6 days by MTT assay. The class given is functional. The settings on record: 144 h, read-out: ED50 (the source's name).
The test system of the next data set is MCF7. Briefly: Antiproliferative activity against human MCF7 cells after 6 days by MTT assay. The settings on record: MCF7, 144 h, read-out: ED50 (the source's name). In kind it is functional.
Data set [1] relates to RAW264.7. Briefly: Antiinflammatory activity in mouse RAW264.7 cells assessed as inhibition of LPS-induced iNOS expression at 10 uM incubated for 10 mins prior to LPS-challenge measured after 16 hrs by Western blot analysis relative to control. The class given is functional. A general note: Immunoblotting shows a protein as a band on a membrane.
For data set [2], the system named is RAW264.7. Nature of the data set: Antiinflammatory activity in mouse RAW264.7 cells assessed as inhibition of LPS-induced COX2 expression at 10 uM incubated for 10 mins prior to LPS-challenge measured after 16 hrs by Western blot analysis relative to control. In kind it is functional.
The subject of data set [3] is RAW264.7. Briefly: Effect on beta-actin protein expression in LPS-induced mouse RAW264.7 cells at 10 uM incubated for 10 mins prior to LPS-challenge measured after 16 hrs by Western blot analysis relative to control. The class given is ADME, cell-based. The settings on record: raw264.7, 16 h.
Data set [4] concerns RAW264.7. Briefly: Toxicity against mouse RAW264.7 cells. The class given is cell-based.

Take `C=C(CC[C@@H](C)[C@H]1CC[C@@H]([C@H]2C[C@@H]3O[C@@]34C[C@@H](O)CC[C@]4(C)C2=O)[C@]1(C)CCO)C(C)C`: the EC50 in the data set with HeLa came to 8.21 µg/mL (≈ 18.4 µM); in the data set with HEp-2 it was 6.21 µg/mL (≈ 13.9 µM); in the data set with Daoy it was 5.53 µg/mL (≈ 12.4 µM); in the data set with MCF7, 4.99 µg/mL (≈ 11.2 µM). In addition, the results for the inhibition at 10 µM in the data set with RAW264.7 [1] and with RAW264.7 [2] were 66.1% and 42.7%, respectively. The Activity in the data set with RAW264.7 [3] is 102.3%; in the data set with RAW264.7 [4], “Non-toxic”.
Turning to `CO[C@@]12[C@H](COC(N)=O)C3=C(C(=O)C(C)=C(N)C3=O)N1C[C@@H]1N[C@@H]12` [MITOMYCIN], the EC50 worked out at 0.13 µg/mL (≈ 0.389 µM) in the data set with HeLa, 0.12 µg/mL (≈ 0.359 µM) in the data set on HEp-2, 0.08 µg/mL (≈ 0.239 µM) in the data set with Daoy and 0.09 µg/mL (≈ 0.269 µM) in the data set with MCF7.
In the case of `C=C(CC[C@@H](C)[C@H]1CC[C@@H]([C@@H]2C[C@H]3O[C@]34C[C@@H](O)CC[C@]4(C)C2=O)[C@]1(C)CCO)C(C)C`, the EC50 with HeLa was greater than 40 µg/mL; in the data set on HEp-2, greater than 40 µg/mL; with Daoy it was 7.07 µg/mL (≈ 15.8 µM); in the data set on MCF7, 9.98 µg/mL (≈ 22.3 µM). Also, the inhibition at 10 µM in the data set on RAW264.7 [1] is 19.4%. Moreover, the values for the Activity in the data set with RAW264.7 [3] and in the data set with RAW264.7 [4] were 108.9% and “Non-toxic”, respectively.
